Data as given in ChEMBL document CHEMBL1909046, “DrugMatrix in vitro pharmacology data”.

Experiments:
[1] = molecular target: T1, Alpha-1A adrenergic receptor (Rattus norvegicus, UniProt P43140); assay: DRUGMATRIX: Alpha-1A adrenergic receptor radioligand binding (ligand: prazosin); type: cell membranes, Wistar, Submaxillary gland, Membrane; conditions: Not Active = under 50% inhibition at 10 µM
T1 sequence (P43140 whole entry): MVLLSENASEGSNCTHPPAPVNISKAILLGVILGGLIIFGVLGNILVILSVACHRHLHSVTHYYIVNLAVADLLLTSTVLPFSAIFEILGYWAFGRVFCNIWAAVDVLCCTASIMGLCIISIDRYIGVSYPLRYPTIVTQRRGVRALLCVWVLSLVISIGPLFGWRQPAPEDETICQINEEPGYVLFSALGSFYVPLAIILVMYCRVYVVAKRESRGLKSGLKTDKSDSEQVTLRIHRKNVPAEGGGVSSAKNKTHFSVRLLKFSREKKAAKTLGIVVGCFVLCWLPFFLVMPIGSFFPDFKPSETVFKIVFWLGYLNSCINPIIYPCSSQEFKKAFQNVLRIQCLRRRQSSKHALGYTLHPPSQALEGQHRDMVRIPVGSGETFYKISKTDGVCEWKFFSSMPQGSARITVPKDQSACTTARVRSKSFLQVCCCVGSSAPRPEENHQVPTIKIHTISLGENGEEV

[2] = molecular target: T2, Interstitial collagenase (Homo sapiens, UniProt P03956); assay: biochemical; type: tissue-based, Rheumatoid synovial fibroblasts;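 also: MMP-1 enzyme inhibition assay using a peptide substrate; in other assays of this panel Not Active means under 50% inhibition at 10 µM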
T2 sequence (P03956 whole entry): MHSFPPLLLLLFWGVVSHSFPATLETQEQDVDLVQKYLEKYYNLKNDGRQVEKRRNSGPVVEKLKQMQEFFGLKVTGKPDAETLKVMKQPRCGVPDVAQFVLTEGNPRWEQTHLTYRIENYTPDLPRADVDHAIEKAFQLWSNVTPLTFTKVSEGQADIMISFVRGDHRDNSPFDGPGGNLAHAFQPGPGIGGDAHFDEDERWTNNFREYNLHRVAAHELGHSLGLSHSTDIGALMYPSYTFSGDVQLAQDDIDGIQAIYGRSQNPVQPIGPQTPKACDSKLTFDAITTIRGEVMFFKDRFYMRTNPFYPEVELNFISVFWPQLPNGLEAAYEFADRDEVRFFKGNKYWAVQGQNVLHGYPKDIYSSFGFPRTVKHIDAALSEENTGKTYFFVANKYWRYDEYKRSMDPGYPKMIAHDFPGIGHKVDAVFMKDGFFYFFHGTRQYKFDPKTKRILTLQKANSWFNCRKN

[3] = DRUGMATRIX: Potassium Channel [KATP] radioligand binding (ligand: [3H] Glyburide); type: cell membranes, Membrane; conditions: hit-t15; Not Active = under 50% inhibition at 10 µM
[4] = DRUGMATRIX: Glutamate, Kainate radioligand binding (ligand: [3H] Kainic acid); type: cell membranes, Rattus norvegicus, Wistar, Brain, Membrane; conditions: Not Active = under 50% inhibition at 10 µM
[5] = molecular target: Cytochrome P450 2C19 (Homo sapiens, UniProt P33261); conditions: bti-tn-5b1-4; also: in other assays of this panel Not Active means under 50% inhibition at 10 µM
Cytochrome P450 2C19, sequence (P33261 whole entry): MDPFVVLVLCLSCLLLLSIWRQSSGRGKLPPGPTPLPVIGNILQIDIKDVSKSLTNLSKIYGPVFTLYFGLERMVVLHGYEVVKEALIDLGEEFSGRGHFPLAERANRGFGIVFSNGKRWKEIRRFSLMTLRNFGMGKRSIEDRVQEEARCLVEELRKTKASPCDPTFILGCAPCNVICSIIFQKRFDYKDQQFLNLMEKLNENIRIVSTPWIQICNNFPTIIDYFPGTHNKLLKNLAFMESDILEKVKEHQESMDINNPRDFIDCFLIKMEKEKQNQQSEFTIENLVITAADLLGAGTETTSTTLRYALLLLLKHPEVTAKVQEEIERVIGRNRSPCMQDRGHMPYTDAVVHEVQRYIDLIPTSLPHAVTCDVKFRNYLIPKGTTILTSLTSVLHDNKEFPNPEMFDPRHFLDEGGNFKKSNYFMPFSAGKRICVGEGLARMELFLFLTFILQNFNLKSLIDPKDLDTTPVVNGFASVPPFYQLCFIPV

[6] = molecular target: Cytochrome P450 2C9 (Homo sapiens, UniProt P11712); conditions: bti-tn-5b1-4; also: in other assays of this panel Not Active means under 50% inhibition at 10 µM
Cytochrome P450 2C9, sequence (P11712 whole entry): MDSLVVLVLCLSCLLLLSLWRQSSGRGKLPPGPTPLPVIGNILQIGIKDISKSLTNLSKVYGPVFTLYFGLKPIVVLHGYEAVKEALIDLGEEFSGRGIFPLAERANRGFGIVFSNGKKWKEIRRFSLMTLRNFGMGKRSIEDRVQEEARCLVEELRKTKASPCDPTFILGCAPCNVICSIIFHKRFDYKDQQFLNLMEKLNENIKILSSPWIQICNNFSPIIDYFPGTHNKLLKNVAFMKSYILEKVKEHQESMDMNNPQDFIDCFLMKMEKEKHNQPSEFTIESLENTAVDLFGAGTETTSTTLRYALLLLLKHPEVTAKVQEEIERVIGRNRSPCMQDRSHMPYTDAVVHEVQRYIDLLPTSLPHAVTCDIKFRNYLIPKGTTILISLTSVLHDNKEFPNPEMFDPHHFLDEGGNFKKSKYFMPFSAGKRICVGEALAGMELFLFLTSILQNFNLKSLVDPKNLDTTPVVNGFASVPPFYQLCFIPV

[7] = DRUGMATRIX: Interleukin IL-1 radioligand binding (ligand: [125I] interleukin 1beta); type: cell membranes, Membrane; conditions: nih3t3; Not Active = under 50% inhibition at 10 µM
[8] = molecular target: T3, Progesterone receptor (Bos taurus, UniProt Q690N0); assay: DRUGMATRIX: Progesterone radioligand binding (ligand: [3H] R-5020); type: tissue-based, Uterus; conditions: Not Active = under 50% inhibition at 10 µM
T3 sequence (Q690N0 whole entry): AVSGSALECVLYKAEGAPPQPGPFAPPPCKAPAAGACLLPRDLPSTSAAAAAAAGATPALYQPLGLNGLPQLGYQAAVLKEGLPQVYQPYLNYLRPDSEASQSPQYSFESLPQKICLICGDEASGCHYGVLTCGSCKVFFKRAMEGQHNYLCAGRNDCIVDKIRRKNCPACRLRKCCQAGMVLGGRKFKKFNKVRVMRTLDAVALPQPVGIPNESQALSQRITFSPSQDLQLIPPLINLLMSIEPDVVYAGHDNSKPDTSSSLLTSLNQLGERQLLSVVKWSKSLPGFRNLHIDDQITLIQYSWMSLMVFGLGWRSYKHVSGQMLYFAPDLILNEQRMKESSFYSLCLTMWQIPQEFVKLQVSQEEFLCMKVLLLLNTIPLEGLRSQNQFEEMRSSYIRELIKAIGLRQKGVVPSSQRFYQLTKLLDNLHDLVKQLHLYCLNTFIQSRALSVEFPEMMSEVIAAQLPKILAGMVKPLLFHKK

Cc1c(N)nc([C@H](CC(N)=O)NC[C@H](N)C(N)=O)nc1C(=O)N[C@H](C(=O)N[C@H](C)[C@@H](O)[C@H](C)C(=O)N[C@H](C(=O)NCCc1nc(-c2nc(C(=O)NCCC[S+](C)C)cs2)cs1)[C@@H](C)O)[C@@H](O[C@@H]1O[C@@H](CO)[C@@H](O)[C@H](O)[C@@H]1O[C@H]1O[C@H](CO)[C@@H](O)[C@H](OC(N)=O)[C@@H]1O)c1c[nH]cn1.[Br-] [BLEOMYCIN A2]
Not Active: IC50 [1] | IC50 [2] | IC50 [3] | Ki [3] | IC50 [4] | Ki [4] | IC50 [5] | Ki [5] | IC50 [6] | Ki [6] | IC50 [7] | Ki [7] | IC50 [8]

COc1cc(NC(C)CCCN)c2ncccc2c1 (stereo not given) [PRIMAQUINE]
Not Active: IC50 [1] | IC50 [2] | IC50 [3] | Ki [3] | IC50 [4] | Ki [4] | IC50 [5] | Ki [5] | IC50 [6] | Ki [6] | IC50 [7] | Ki [7] | IC50 [8]

CCCCCCNC(=O)n1cc(F)c(=O)[nH]c1=O [CARMOFUR]
Not Active: IC50 [1] | IC50 [2] | IC50 [3] | Ki [3] | IC50 [4] | Ki [4] | IC50 [5] | Ki [5] | IC50 [6] | Ki [6] | IC50 [7] | Ki [7] | IC50 [8]

O=c1[nH]c2ccccc2c2ccccc12
Not Active: IC50 [1] | IC50 [2] | IC50 [3] | Ki [3] | IC50 [4] | Ki [4] | IC50 [5] | Ki [5] | IC50 [6] | Ki [6] | IC50 [7] | Ki [7] | IC50 [8]

C=C(Cl)Cl [1,1-DICHLOROETHENE]
Not Active: IC50 [1] | IC50 [2] | IC50 [3] | Ki [3] | IC50 [4] | Ki [4] | IC50 [5] | Ki [5] | IC50 [6] | Ki [6] | IC50 [7] | Ki [7] | IC50 [8]

CC(=O)[C@]1(O)Cc2c(O)c3c(c(O)c2[C@@H](O[C@H]2C[C@H](N)[C@H](O)[C@H](C)O2)C1)C(=O)c1ccccc1C3=O [IDARUBICIN]
Not Active: IC50 [1] | IC50 [2] | IC50 [3] | Ki [3] | IC50 [4] | Ki [4] | IC50 [5] | Ki [5] | IC50 [6] | Ki [6] | IC50 [7] | Ki [7] | IC50 [8]

O=C(Nc1ccc(Cl)c(Cl)c1)c1cc(Cl)cc(Cl)c1O [3,3',4',5-TETRACHLOROSALICYLANILIDE]
Not Active: IC50 [1] | IC50 [2] | IC50 [3] | Ki [3] | IC50 [4] | Ki [4] | IC50 [5] | Ki [5] | IC50 [6] | Ki [6] | IC50 [7] | Ki [7] | IC50 [8]

CC(=O)Nc1ccc2c(c1)Cc1ccccc1-2 [2-ACETYLAMINOFLUORENE]
Not Active: IC50 [1] | IC50 [2] | IC50 [3] | Ki [3] | IC50 [4] | Ki [4] | IC50 [5] | Ki [5] | IC50 [6] | Ki [6] | IC50 [7] | Ki [7] | IC50 [8]

C[N+](C)(C)CCOC(N)=O.[Cl-] [CARBACHOL]
Not Active: IC50 [1] | IC50 [2] | IC50 [3] | Ki [3] | IC50 [4] | Ki [4] | IC50 [5] | Ki [5] | IC50 [6] | Ki [6] | IC50 [7] | Ki [7] | IC50 [8]

Oc1ncnc2[nH]ncc12 [ALLOPURINOL]
Not Active: IC50 [1] | IC50 [2] | IC50 [3] | Ki [3] | IC50 [4] | Ki [4] | IC50 [5] | Ki [5] | IC50 [6] | Ki [6] | IC50 [7] | Ki [7] | IC50 [8]
